According to patent US20190328691A1, “ANTIBIOTIC THERAPY” (Boulos & Cooper Pharmaceuticals Pty Ltd, priority 2015, published 2019):
Where two headings read alike, the source gives them in different places.

Legend:
[1] = system: Staphylococcus aureus (ATCC 29213); assay: Checkerboard combination / MIC assay with S. aureus ATCC 29213; assay type: cell-based; conditions: S. aureus ATCC 29213; for MIC: Staphylococcus aureus, read-out: MIC of antibiotic alone
In short: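 CLSI broth microdilution checkerboard in CAMHB, final inoculum 5×10^5 CFU/mL, 2% DMSO. Ramizol or Chlopam (11-point 2-fold) crossed with commercial antibiotics (7-point), each starting at 4× MIC; synergy assessed by FIC index (sum of MIC-in-combination/MIC-alone ratios; ≤0.5 synergy, >4 antagonism).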

[2] = system: Staphylococcus aureus (BAA-1717); assay: Checkerboard combination / MIC assay with S. aureus BAA-1717 (MRSA); assay type: cell-based; conditions: for Effect of individual antibiotic combinations: S. aureus BAA-1717
In short: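 CLSI broth microdilution checkerboard in CAMHB (5×10^5 CFU/mL, 2% DMSO final). Ramizol or Chlopam was tested in 11-point two-fold series against 7-point antibiotic titrations, starting at 4× MIC.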

## CC(=O)NC[C@H]1CN(c2ccc(N3CCOCC3)c(F)c2)C(=O)O1 [Linezolid]
[1]; Chlopam 0.003906 μg/mL + labelled antibiotic at MIC of same cell
  FICI of combination with Chlopam: 1.0
[1]; Chlopam 0.003906 μg/mL
  MIC of antibiotic in combination with Chlopam: 2 µg/mL
[1]; Chlopam 0.0078125 μg/mL + labelled antibiotic at MIC of same cell
  FICI of combination with Chlopam: 1.0
[1]; Chlopam 0.0078125 μg/mL
  MIC of antibiotic in combination with Chlopam: 2 µg/mL
[1]; Chlopam 0.015625 μg/mL + labelled antibiotic at MIC of same cell
  FICI of combination with Chlopam: 1.0
[1]; Chlopam 0.015625 μg/mL
  MIC of antibiotic in combination with Chlopam: 2 µg/mL
[1]; Chlopam 0.125 μg/mL + labelled antibiotic at MIC of same line
  FICI of combination with Chlopam: 0.8
[1]; Chlopam 0.125 μg/mL
  MIC of antibiotic in combination with Chlopam: 1 µg/mL
[1]; Chlopam 0.25 μg/mL + labelled antibiotic at MIC of same cell
  FICI of combination with Chlopam: 0.8
[1]; Chlopam 0.25 μg/mL
  MIC of antibiotic in combination with Chlopam: 0.5 µg/mL
[1]; Chlopam 0.5 μg/mL + labelled antibiotic at MIC of same cell
  FICI of combination with Chlopam: 0.6
[1]; Chlopam 0.5 μg/mL
  MIC of antibiotic in combination with Chlopam: 0.25 µg/mL
[1]; Chlopam and Linezolid: 0.003901 and 2, 0.0078125 and 2, 0.015625 and 2, 0.125 and 1, 0.25 and 0.5, 0.5 and 0.25 μg/mL
  Effect of individual antibiotic combinations: additive effect
[1]; Ramizol 0.015625 μg/mL + labelled antibiotic at MIC of same cell
  FICI of combination with Ramizol: 1.0
[1]; Ramizol 0.015625 μg/mL
  MIC of antibiotic in combination with Ramizol: 4 µg/mL
[1]; Ramizol 0.03125 μg/mL + labelled antibiotic at MIC of same cell
  FICI of combination with Ramizol: 1.0
[1]; Ramizol 0.03125 μg/mL
  MIC of antibiotic in combination with Ramizol: 4 µg/mL
[1]; Ramizol 0.0625 μg/mL + labelled antibiotic at MIC of same cell
  FICI of combination with Ramizol: 1.0
[1]; Ramizol 0.0625 μg/mL
  MIC of antibiotic in combination with Ramizol: 4 µg/mL
[1]; Ramizol 0.125 μg/mL + labelled antibiotic at MIC of same cell
  FICI of combination with Ramizol: 1.0
[1]; Ramizol 0.125 μg/mL
  MIC of antibiotic in combination with Ramizol: 4 µg/mL
[1]; Ramizol 0.25 μg/mL + labelled antibiotic at MIC of same cell
  FICI of combination with Ramizol: 1.0
[1]; Ramizol 0.25 μg/mL
  MIC of antibiotic in combination with Ramizol: 4 µg/mL
[1]; Ramizol and linezolid: 0.015625 and 4, 0.03125 and 4, 0.0625 and 4, 0.125 and 4, 0.25 and 4 μg/mL
  Effect of individual antibiotic combinations: additive effect
[1]; ATCC29213, Table 4, checkerboard series with Chlopam
  MIC: 2 µg/mL
[1]; ATCC29213, Table 7, checkerboard series with Ramizol
  MIC: 4 µg/mL
[1]; labelled antibiotic + Chlopam
  Effect of the combinations with Chlopam (by mean FICI): additive effect
[1]; labelled antibiotic + Chlopam, mean of all pairwise combinations
  mean FICI of combination with Chlopam: 0.9
[1]; labelled antibiotic + Ramizol, mean of all pairwise combinations
  mean FICI of combination with Ramizol: 1.1
[2]; Chlopam 0.001953 μg/mL + labelled antibiotic at MIC of same cell, S. aureus ATCC BAA-1717
  FICI of combination with Chlopam: 1.0
[2]; Chlopam 0.001953 μg/mL, S. aureus ATCC BAA-1717
  MIC of antibiotic in combination with Chlopam: 1 µg/mL
[2]; Chlopam 0.003906 μg/mL + labelled antibiotic at MIC of same cell, S. aureus ATCC BAA-1717
  FICI of combination with Chlopam: 1.0
[2]; Chlopam 0.003906 μg/mL, S. aureus ATCC BAA-1717
  MIC of antibiotic in combination with Chlopam: 1 µg/mL
[2]; Chlopam 0.0078125 μg/mL + labelled antibiotic at MIC of same cell, S. aureus ATCC BAA-1717
  FICI of combination with Chlopam: 1.0
[2]; Chlopam 0.0078125 μg/mL, S. aureus ATCC BAA-1717
  MIC of antibiotic in combination with Chlopam: 1 µg/mL
[2]; Chlopam 0.015625 μg/mL + labelled antibiotic at MIC of same cell, S. aureus ATCC BAA-1717
  FICI of combination with Chlopam: 1.0
[2]; Chlopam 0.015625 μg/mL, S. aureus ATCC BAA-1717
  MIC of antibiotic in combination with Chlopam: 1 µg/mL
[2]; Chlopam and Linezolid: 0.001953 and 1, 0.003901 and 1, 0.0078125 and 1, 0.015625 and 1 μg/mL
  Effect of individual antibiotic combinations: additive effect
[2]; Ramizol 0.015625 μg/mL + labelled antibiotic at MIC of same cell, S. aureus ATCC BAA-1717
  FICI of combination with Ramizol: 1.0
[2]; Ramizol 0.015625 μg/mL, S. aureus ATCC BAA-1717
  MIC of antibiotic in combination with Ramizol: 1 µg/mL
[2]; Ramizol 0.03125 μg/mL + labelled antibiotic at MIC of same cell, S. aureus ATCC BAA-1717
  FICI of combination with Ramizol: 1.0
[2]; Ramizol 0.03125 μg/mL, S. aureus ATCC BAA-1717
  MIC of antibiotic in combination with Ramizol: 1 µg/mL
[2]; Ramizol 0.0625 μg/mL + labelled antibiotic at MIC of same cell, S. aureus ATCC BAA-1717
  FICI of combination with Ramizol: 1.0
[2]; Ramizol 0.0625 μg/mL, S. aureus ATCC BAA-1717
  MIC of antibiotic in combination with Ramizol: 1 µg/mL
[2]; Ramizol 0.125 μg/mL + labelled antibiotic at MIC of same line, S. aureus ATCC BAA-1717
  FICI of combination with Ramizol: 1.0
[2]; Ramizol 0.125 μg/mL, S. aureus ATCC BAA-1717
  MIC of antibiotic in combination with Ramizol: 1 µg/mL
[2]; Ramizol and linezolid: 0.015625 and 1, 0.03125 and 1, 0.0625 and 1, 0.125 and 1 μg/mL
  Effect of individual antibiotic combinations: additive effect
[2]; Staphylococcus aureus, ATCC BAA-1717 / BAA-1717, Table 4, checkerboard series with Chlopam, S. aureus ATCC BAA-1717, read-out: MIC of antibiotic alone
  MIC: 1 µg/mL
[2]; Table 7, checkerboard series with Ramizol, S. aureus ATCC BAA-1717
  MIC of antibiotic alone: 1 µg/mL
[2]; labelled antibiotic + Chlopam, mean of all pairwise combinations, S. aureus ATCC BAA-1717
  mean FICI of combination with Chlopam: 1.2
[2]; labelled antibiotic + Ramizol, mean of all pairwise combinations, S. aureus ATCC BAA-1717
  mean FICI of combination with Ramizol: 1.2
